In US20080234498A1, “Pyrovalerone Analogues and Therapeutic Uses Thereof” (PRESIDENT AND FELLOW OF HARVARD COLLEGE, priority 2003, published 2008):
Counter-ions that a name gives are not always drawn. Like-named read-outs stand apart in the source and are kept apart here. Marks after values point to notes of the source that are not given here.

How the values were obtained:
dopamine transporter = target: T1, dopamine transporter (Macaca mulatta, UniProt Q7JHP9); experiment: Dopamine transporter occupancy by PET imaging with [11C]CFT; assay type: in vivo, Rhesus monkeys; conditions: for Brain entry and occupancy of DAT sites (in words): living brain, PET imaging, cerebellum as the negative control; for [11C]CFT with Compound (binding potential) / % Occupancy / % Occupancy, cerebellum levels considered background: rhesus monkey; for [11C]CFT with Compound (binding potential): compound intravenously, PET one hour after administration; for % Occupancy / % Occupancy, cerebellum levels considered background: i.v., one hour; for % Occupancy: from reduced [11C]CFT binding potential vs baseline; for % Occupancy, cerebellum levels considered background: reduced to levels of cerebellum = full occupancy
T1 construct: occupy the dopamine transporter in living brain; from tissue; host or cells: living brain of rhesus monkeys (in vivo PET)
T1 sequence (Q7JHP9 1-620): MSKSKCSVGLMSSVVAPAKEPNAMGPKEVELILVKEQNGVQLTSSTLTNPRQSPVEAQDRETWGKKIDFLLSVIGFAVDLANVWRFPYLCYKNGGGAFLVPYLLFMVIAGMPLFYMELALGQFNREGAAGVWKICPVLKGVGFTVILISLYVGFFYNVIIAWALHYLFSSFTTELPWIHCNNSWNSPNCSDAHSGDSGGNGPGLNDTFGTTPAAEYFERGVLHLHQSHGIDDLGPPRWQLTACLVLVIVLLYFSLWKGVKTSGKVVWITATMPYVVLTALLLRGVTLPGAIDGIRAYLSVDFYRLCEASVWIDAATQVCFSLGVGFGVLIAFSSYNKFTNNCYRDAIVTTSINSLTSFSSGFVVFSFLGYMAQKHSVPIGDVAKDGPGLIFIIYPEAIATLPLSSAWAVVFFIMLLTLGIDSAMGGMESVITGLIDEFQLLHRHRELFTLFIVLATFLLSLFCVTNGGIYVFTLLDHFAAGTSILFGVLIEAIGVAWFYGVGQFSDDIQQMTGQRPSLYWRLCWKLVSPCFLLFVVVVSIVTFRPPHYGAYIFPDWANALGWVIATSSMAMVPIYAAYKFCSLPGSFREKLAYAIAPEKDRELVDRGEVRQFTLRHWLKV
Protocol: As the compounds of the invention are high affinity ligands for the dopamine transporter, we determined whether they occupy the dopamine transporter in living brain within 1 hour of administration. To monitor occupancy of the dopamine transporter, PET imaging was conducted with the high affinity dopamine transporter probe [11C]CFT ([11C]WIN 35,428). Rhesus monkeys were anesthetized with ketamine and xylazine and an indwelling intravenous catheter was placed in a leg vein. DAT density (binding potential) was acquired with [11C]CFT to obtain baseline levels. Immediately following completion of the imaging session, monkeys were administered the test compound intravenously via the indwelling catheter and PET imaging was conducted one hour after administration. Imaging data from the pre- and post-drug session were compared and occupancy was calculated on the basis of reduced [11C]CFT binding potential one hour or longer after administration of the compound. The following table (Table 1) summarizes pilot data from this study.

[1] = target: dopamine transporter (DAT) (Homo sapiens, UniProt Q01959); experiment: Radioreceptor assay, inhibition of (3H)WIN 35,428 binding to the dopamine transporter
Chain of dopamine transporter (DAT) (Q01959 whole entry, species assumed): as the sequence (Q7JHP9 1-620) above, with M24V, V137I, S194P, G198S, N200D, G201S, P202S counted along it
From the text: Dysfunction of dopamine neurons has been implicated in several neuropsychiatric diseases. Imaging of the dopamine neurons offers important clinical information relevant to diagnosis and therapeutic treatments. Dopamine neurons produce dopamine, release the neurotransmitter and remove the released dopamine with a dopamine transporter protein. Compounds that bind to the dopamine transporter are effective measures of dopamine neurons and can be transformed into imaging agents for PET and for SPECT imaging (see, e.g., Example 70, infra, for use of PET imaging). In identifying a suitable compound for the dopamine transporter, an essential first step is to measure the affinity and selectivity of a candidate at the dopamine transporter. The affinity can be measured by conducting radioreceptor assays. A radiolabeled marker for the transporter, e.g., (^3H)WIN 35,428, is incubated with the unlabeled candidate and a source of the transporter, usually brain striatum. The effect of various concentrations of the candidate on inhibiting (^3H)WIN 35,428 binding is quantified. The concentration of the compound that inhibits 50% of (^3H)WIN 35,428 bound to the transporter (IC50 value) is used as a measure of its affinity for the transporter. A suitable range of concentrations of the candidate typically is about 1 nM up to about 100 nM, more preferably 1 to 10 nM.
(§1) ^3H-WIN 35,428 (^3H-CFT, 2β-carbomethoxy-3β-(4-fluorophenyl)-N-^3H-methyltropane, 79.4-87.0 Ci/mmol) and ^3H-citalopram (86.8 Ci/mmol) is purchased from DuPont-New England Nuclear (Boston, Mass.). HPLC analyses are carried out on a Waters 510 system with detection at 254 nm on a Chiralcel OC column (flow rate: 1 mL/min).

[2] = target: serotonin transporter (SERT) (Homo sapiens, UniProt P31645); experiment: Radioreceptor assay, inhibition of (3H)citalopram binding to the serotonin transporter
Chain of serotonin transporter (SERT) (P31645 whole entry, species assumed): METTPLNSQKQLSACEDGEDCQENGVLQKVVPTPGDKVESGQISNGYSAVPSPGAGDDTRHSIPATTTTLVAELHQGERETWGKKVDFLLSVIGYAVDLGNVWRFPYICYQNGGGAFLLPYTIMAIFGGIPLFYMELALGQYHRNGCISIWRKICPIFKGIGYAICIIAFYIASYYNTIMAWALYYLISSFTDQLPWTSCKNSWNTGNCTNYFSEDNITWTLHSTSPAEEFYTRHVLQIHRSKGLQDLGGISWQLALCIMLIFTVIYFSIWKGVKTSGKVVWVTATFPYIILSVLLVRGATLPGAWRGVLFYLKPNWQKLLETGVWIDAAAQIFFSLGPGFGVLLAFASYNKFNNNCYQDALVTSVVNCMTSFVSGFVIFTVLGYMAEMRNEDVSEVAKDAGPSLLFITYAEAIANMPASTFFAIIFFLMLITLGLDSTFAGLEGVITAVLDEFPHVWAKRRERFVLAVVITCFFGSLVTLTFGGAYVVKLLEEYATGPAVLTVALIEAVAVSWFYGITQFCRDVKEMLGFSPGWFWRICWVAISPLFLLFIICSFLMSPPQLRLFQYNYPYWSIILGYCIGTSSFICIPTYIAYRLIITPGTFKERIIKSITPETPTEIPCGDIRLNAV
Protocol: The serotonin transporter is also detectable in the striatum, the brain region with the highest density of dopamine neurons and in brain regions surrounding the striatum. […] Therefore, a measure of probe affinity of the serotonin transport is conducted by assays paralleling the dopamine transporter assays.
as §1

For `CCCC(C(=O)c1ccc(-c2cccs2)cc1)N1CCCC1` (centres unmarked) (as salt: salt), the melting point was 220 °C (dec.).
In the case of `CCCC(C(=O)c1ccc(NC(C)=O)cc1)N1CCCC1` (centres unmarked) (as salt: salt), the melting point is reported as 195 °C (dec.).
With `CCCC(C(=O)c1ccc([N+](=O)[O-])cc1)N1CCCC1` (centres unmarked) (as salt: salt) the melting point was 189 °C (dec.).
With `CCCC(C(=O)c1cccc(C)c1)N1CCCC1` (centres unmarked) (as salt: salt) the melting point was 166 °C (dec.).
In the case of `CCCC(C(=O)c1ccc(C(F)(F)F)cc1)N1CCCC1` (centres unmarked) (as salt: salt), the melting point is reported as 228 °C (dec.).
With `CCCC(C(=O)c1ccc2ccccc2c1)N1CCCC1` (centres unmarked) (as salt: salt) the melting point was 221 to 223 °C (dec.).
In the case of `CCCC(C(=O)c1ccc(I)cc1)N1CCCC1` (centres unmarked) (as salt: salt), the melting point is reported as 218 °C (dec.).
In the case of `Cc1ccc(C(=O)C(CC(C)C)N2CCCC2)cc1` (centres unmarked) (as salt: salt), the melting point is reported as 218 °C (dec.).
With `CCCC(C(=O)c1ccc(OC)c(OC)c1)N1CCCC1` (centres unmarked) (as salt: salt) the melting point was 177 °C (dec.).
With `CC#Cc1ccc(C(=O)C(CCC)N2CCCC2)cc1` (centres unmarked) (as salt: salt) the melting point was 231 °C (dec.).
In the case of `CCCC(C(=O)c1ccc(F)cc1)N1CCCC1` (centres unmarked) (as salt: salt), the melting point is reported as 218 °C (dec.).
In the case of `CCC(C(=O)c1ccc(Cl)c(Cl)c1)N1CCCC1` (centres unmarked) (as salt: salt), the melting point is reported as 211 °C (dec.).
In the case of `CCCC(C(=O)c1ccc(Cl)c(Cl)c1)N1CCCCC1` (centres unmarked) (as salt: salt), the melting point is reported as 202 °C (dec.).
For `CCCC(C(=O)c1cccc(I)c1)N1CCCC1` (centres unmarked) (as salt: salt), the melting point was 203 °C (dec.).
With `CCC(CC(=O)c1ccc(Cl)c(Cl)c1)N1CCCC1` (centres unmarked) (as salt: salt) the melting point was 104 to 107 °C (dec.).
For `CCC(CC(=O)c1ccc(C)cc1)N1CCCC1` (centres unmarked) (as salt: salt), the melting point was 97 °C (dec.).
Compound `CCCC(C(=O)c1ccc(O)c(O)c1)N1CCCC1` (centres unmarked) (as salt: salt) has a melting point of 181 to 182 °C.
For `CCCC(C(=O)c1ccc(C#N)cc1)N1CCCC1` (centres unmarked) (as salt: salt), the melting point was 197 to 199 °C (dec.).
In the case of `C#CCC(C(=O)c1ccc(C)cc1)N1CCCC1` (centres unmarked) (as salt: salt), the melting point is reported as 178 °C (dec.).
In the case of `CCCC(C(=O)c1ccc(CO)cc1)N1CCCC1` (centres unmarked) (as salt: salt), the melting point is reported as 186 to 187 °C (dec.).
For `CCCC(N1CCCC1)C(O)(Cc1ccccc1)c1ccc(C)cc1` (centres unmarked) (as salt: salt), the melting point was 211 °C (dec.).
In the case of `C=CCC(C(=O)c1ccc(C)cc1)N1CCCC1` (centres unmarked) (as salt: salt), the melting point is reported as 196 °C (dec.).
In the case of `CCCC(C(=O)c1ccc(C(=O)OC)cc1)N1CCCC1` (centres unmarked) (as salt: salt), the melting point is reported as 202 °C (dec.).
In the case of `CCCC(C(=O)c1ccc(Cl)c(Cl)c1)N1CCCC1` (centres unmarked) (as salt: salt) [Compound O-2390, 2-Pyrrolidin-1-yl-1-(3,4-Dichloro-phenyl)-pentan-1-one], the melting point is reported as 195 °C (dec.).
In the case of `CCCC(C(=O)c1ccc(Br)cc1)N1CCCC1` (centres unmarked) (as salt: salt) [Compound O-2419, 2-Pyrrolidin-1-yl-1-(4′-bromo-phenyl)-pentan-1-one], the melting point is reported as 200 °C (dec.).
With `CCCC(C(=O)c1ccc(C)cc1)N1CCCC1` (racemic) (as salt: salt) [Compound O-2371, 2-Pyrrolidin-1-yl-1-p-tolyl-pentan-1-one] the melting point was 180 °C (dec.).
In the case of `CCCC(C(=O)c1ccc(C)cc1)N1CCCC1` (racemic) [Compound O-2371, 2-Pyrrolidin-1-yl-1-p-tolyl-pentan-1-one], the “Brain entry and occupancy of DAT sites (in words)” value (dopamine transporter) is reported as “most efficient in entering the brain and occupying the majority of DAT sites”, the “[11C]CFT with Compound (binding potential)” value (shortened to “[11C]CFT with Compound”) (dopamine transporter) is reported as 0.4551 and the “% Occupancy” value (dopamine transporter) is reported as 74%. The “% Occupancy, cerebellum levels considered background” value (dopamine transporter) was 100* % and the IC50 [1] was 8 nM.
With `CCCC(C(=O)c1ccccc1)N1CCCC1` (centres unmarked) [Compound O-2387, 2-Pyrrolidin-1-yl-phenyl-pentan-1-one] the “[11C]CFT with Compound” value (dopamine transporter) was 0.7885, the “% Occupancy” value (dopamine transporter) was 64% and the IC50 ([1]; affinity column of the PET occupancy table, read-out: DAT Affinity) was 13 nM.
With `CCCC(C(=O)c1ccc(Cl)c(Cl)c1)N1CCCC1` (centres unmarked) [Compound O-2390, 2-Pyrrolidin-1-yl-1-(3,4-Dichloro-phenyl)-pentan-1-one] the “[11C]CFT with Compound” value (dopamine transporter) was 0.5898, the “% Occupancy” value (dopamine transporter) was 56% and the IC50 [1] was 8 nM.
For `CCCC(C(=O)c1ccc(Br)cc1)N1CCCC1` (centres unmarked) [Compound O-2419, 2-Pyrrolidin-1-yl-1-(4′-bromo-phenyl)-pentan-1-one], the “[11C]CFT with Compound” value (dopamine transporter) was 1.6025, the “% Occupancy” value (dopamine transporter) was 33% and the IC50 [1] was 8 nM.
For `CCC[C@@H](C(=O)c1ccc(C)cc1)N1CCCC1` [Compound O-2442, (2S)-2-Pyrrolidin-1-yl-1-p-tolyl-pentan-1-one], the IC50 [2] was > 4000 nM, the “Brain entry and occupancy of DAT sites (in words)” value (dopamine transporter) was “most efficient in entering the brain and occupying the majority of DAT sites” and the “[11C]CFT with Compound” value (dopamine transporter) was 0.6112. The “% Occupancy” value (dopamine transporter) was 70%, the “% Occupancy, cerebellum levels considered background” value (dopamine transporter) was 100* % and the IC50 [1] was 3 nM. For the same compound, the “DAT inhibition potency, comparison of enantiomers” value ([1]; 2S versus 2R enantiomer) was “more potent DAT inhibitor than the 2R-enantiomer”.
